The text below walks through data of ChEMBL document CHEMBL5465560, “Selectivity Literature for EUbOPEN Chemogenomic Library” (2024).

Test [1] concerns the target Serine/threonine-protein kinase WNK3 (Homo sapiens) (UniProt Q9BYP7). Put plainly: Selectivity interaction (ProQinase) EUB0000171b WNK3.
Test [2] concerns the target Serine/threonine-protein kinase MRCK beta (Homo sapiens) (UniProt Q9Y5S2). Conditions: at 10 µM.
Test [3] concerns the target T1, Hormonally up-regulated neu tumor-associated kinase (Homo sapiens) (UniProt P57058).
T1 sequence (whole entry): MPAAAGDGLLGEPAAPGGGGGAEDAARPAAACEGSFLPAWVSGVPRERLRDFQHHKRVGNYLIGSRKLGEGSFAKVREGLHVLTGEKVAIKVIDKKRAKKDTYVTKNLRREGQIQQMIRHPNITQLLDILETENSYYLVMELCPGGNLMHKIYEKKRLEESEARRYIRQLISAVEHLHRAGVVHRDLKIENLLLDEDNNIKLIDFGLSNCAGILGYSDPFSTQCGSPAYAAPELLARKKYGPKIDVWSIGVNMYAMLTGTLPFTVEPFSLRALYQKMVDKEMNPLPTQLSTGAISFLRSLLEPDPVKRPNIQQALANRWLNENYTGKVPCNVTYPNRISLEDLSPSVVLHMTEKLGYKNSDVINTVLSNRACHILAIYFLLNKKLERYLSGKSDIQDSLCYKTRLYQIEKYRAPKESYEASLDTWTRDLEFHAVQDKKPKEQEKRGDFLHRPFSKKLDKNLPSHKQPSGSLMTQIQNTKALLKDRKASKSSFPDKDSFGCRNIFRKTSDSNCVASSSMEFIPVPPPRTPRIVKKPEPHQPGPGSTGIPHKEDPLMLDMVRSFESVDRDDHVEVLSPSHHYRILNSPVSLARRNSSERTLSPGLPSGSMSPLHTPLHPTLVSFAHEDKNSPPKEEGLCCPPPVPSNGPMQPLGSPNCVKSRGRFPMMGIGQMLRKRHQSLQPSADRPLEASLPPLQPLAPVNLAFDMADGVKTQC
Put plainly: Selectivity interaction (Ambit KINOMEscan and KiNATiv profiling in Jurkat cells) EUB0000090b HUNK. It counts as cell-based. Particulars: at 1 µM.

Test [4] addresses Cyclin-dependent kinase 5 (Homo sapiens, UniProt Q00535). Particulars: at 10 µM.
The target in test [5] is Platelet-derived growth factor receptor beta (Homo sapiens, UniProt P09619). Kind of test: Selectivity interaction (Millipore kinase profiler) EUB0000124b PDGFRB. Particulars: at 10 µM.
Platelet-derived growth factor receptor beta, sequence (P09619 whole entry): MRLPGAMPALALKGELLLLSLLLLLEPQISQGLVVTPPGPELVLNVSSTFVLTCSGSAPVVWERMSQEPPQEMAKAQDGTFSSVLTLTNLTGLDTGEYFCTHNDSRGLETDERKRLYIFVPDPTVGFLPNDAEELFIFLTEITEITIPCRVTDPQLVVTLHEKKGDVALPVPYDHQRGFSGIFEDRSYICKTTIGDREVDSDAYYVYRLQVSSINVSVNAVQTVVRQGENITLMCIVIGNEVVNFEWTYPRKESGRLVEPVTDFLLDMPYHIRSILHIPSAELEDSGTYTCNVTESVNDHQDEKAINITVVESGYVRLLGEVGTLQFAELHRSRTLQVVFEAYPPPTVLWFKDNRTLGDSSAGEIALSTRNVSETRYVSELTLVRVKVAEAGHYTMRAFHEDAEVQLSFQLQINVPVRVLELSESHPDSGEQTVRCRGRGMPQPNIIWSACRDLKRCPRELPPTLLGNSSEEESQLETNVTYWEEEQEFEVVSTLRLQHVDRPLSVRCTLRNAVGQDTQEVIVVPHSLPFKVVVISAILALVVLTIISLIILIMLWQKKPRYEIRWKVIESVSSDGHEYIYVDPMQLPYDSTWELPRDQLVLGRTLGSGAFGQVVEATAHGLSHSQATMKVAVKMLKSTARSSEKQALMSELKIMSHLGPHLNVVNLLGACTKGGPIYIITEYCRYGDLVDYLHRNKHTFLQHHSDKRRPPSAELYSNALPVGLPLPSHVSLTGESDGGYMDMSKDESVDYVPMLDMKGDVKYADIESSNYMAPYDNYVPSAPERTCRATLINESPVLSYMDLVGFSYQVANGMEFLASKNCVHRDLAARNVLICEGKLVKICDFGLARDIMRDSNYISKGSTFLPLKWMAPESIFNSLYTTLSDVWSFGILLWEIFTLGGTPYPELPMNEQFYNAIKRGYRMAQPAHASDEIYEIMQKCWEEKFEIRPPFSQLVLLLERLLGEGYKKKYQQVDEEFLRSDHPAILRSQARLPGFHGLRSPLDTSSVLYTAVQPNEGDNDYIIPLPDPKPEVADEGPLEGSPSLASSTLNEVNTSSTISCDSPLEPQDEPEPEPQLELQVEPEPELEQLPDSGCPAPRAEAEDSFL
The target in test [6] is Tyrosine-protein kinase CSK (Homo sapiens) (UniProt P41240). Kind of test: Selectivity interaction (Millipore kinase profiler) EUB0000124b CSK. Particulars: at 10 µM.
Test [7] deals with Casein kinase I isoform gamma-3 (Homo sapiens) (UniProt Q9Y6M4). Put plainly: Selectivity interaction (KinomeScan (DiscoverX)) EUB0001049a CSNK1G3. Conditions: at 1 µM.
Casein kinase I isoform gamma-3 (Homo sapiens), sequence (Q9Y6M4 whole entry, looked up, canonical isoform): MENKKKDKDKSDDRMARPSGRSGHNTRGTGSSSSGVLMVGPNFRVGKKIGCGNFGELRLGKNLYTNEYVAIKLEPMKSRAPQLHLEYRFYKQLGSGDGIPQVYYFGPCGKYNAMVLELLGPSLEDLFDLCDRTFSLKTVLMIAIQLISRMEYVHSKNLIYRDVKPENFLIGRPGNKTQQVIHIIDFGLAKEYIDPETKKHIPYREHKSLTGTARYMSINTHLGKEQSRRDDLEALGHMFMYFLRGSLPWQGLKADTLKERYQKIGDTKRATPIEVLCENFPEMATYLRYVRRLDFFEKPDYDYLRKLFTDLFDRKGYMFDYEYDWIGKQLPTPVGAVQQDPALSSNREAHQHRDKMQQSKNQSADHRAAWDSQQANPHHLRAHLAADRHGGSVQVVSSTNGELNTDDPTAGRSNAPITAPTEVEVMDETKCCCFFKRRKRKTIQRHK
The target in test [8] is 1-phosphatidylinositol 3-phosphate 5-kinase (Homo sapiens) (UniProt Q9Y2I7). Kind of test: Selectivity interaction (KinomeScan (DiscoverX)) EUB0001550a PIKFYVE. Particulars: at 1 µM.
Test [9] deals with Bromodomain-containing protein 3 (Homo sapiens) (UniProt Q15059). Put plainly: Selectivity interaction (Bromodomain panel (DSF asssay)) EUB0000270b BRD3.
Bromodomain-containing protein 3 (Homo sapiens), sequence (Q15059 2-726 limits assumed): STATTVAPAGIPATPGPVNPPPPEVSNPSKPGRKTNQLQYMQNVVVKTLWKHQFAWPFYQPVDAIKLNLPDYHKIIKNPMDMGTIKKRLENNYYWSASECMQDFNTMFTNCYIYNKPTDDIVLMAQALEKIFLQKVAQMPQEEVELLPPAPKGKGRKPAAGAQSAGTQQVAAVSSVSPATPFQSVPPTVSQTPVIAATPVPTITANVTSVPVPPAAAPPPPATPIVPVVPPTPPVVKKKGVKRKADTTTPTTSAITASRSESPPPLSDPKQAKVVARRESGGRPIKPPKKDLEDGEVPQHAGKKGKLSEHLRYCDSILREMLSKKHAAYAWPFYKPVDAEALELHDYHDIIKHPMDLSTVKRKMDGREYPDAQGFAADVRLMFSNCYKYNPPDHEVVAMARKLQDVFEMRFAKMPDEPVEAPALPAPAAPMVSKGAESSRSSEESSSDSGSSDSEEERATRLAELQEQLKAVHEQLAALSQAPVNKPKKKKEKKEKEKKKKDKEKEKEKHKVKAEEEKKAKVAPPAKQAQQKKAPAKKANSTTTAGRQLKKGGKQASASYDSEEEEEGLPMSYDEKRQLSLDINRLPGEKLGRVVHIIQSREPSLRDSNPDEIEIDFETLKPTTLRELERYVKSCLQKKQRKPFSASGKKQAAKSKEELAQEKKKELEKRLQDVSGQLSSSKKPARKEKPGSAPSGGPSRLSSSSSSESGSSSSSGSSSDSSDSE
The target in test [10] is Casein kinase I isoform delta (Homo sapiens, UniProt P48730). Put plainly: Selectivity interaction (Kinase panel (Invitrogen)) EUB0000639a CSNK1D. Particulars: at 200 nM.
The target of test [11] is Angiopoietin-1 receptor (Homo sapiens) (UniProt Q02763). Kind of test: Selectivity interaction (KinomeScan (DiscoverX)) EUB0000229b TEK. Particulars: at 10 µM.
Test [12] has as its target T2, Cyclin-dependent kinase 11A (Homo sapiens) (UniProt Q9UQ88).
T2 sequence (whole entry): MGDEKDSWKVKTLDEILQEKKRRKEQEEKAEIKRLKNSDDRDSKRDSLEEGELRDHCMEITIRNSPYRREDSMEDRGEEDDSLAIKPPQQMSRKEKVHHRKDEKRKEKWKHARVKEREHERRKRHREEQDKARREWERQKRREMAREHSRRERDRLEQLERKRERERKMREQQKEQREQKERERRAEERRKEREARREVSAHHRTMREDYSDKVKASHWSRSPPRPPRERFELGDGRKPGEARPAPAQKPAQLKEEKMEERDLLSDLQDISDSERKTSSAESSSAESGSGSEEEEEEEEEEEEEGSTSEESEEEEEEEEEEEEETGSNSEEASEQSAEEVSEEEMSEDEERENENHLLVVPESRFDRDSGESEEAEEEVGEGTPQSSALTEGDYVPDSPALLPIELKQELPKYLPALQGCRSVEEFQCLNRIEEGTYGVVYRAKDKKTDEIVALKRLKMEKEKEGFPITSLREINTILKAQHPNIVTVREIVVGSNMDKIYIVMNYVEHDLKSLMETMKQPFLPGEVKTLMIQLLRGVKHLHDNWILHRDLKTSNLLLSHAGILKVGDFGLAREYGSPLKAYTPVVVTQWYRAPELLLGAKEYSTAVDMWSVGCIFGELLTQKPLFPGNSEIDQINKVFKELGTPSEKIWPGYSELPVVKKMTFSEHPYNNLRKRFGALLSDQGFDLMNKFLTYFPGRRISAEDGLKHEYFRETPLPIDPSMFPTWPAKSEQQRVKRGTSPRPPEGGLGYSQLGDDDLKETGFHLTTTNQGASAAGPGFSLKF
Kind of test: Selectivity interaction (KinomeScan (DiscoverX)) EUB0001619a CDK11A. Conditions: at 1 µM.

For test [13], the system named is Epidermal growth factor receptor (Homo sapiens), P00533 [UNDEFINED MUTATION]. Put plainly: Selectivity interaction (KinomeScan (DiscoverX)) EUB0001619a EGFR. Conditions: at 1 µM.
In test [14] the target is Ephrin type-A receptor 5 (Homo sapiens) (UniProt P54756). Kind of test: Selectivity interaction (KinomeScan (DiscoverX)) EUB0000618a EPHA5. Conditions: at 10 µM.
A further test has as its target SRSF protein kinase 1 (Homo sapiens, UniProt Q96SB4). Kind of test: Selectivity interaction (KinomeScan (DiscoverX)) EUB0000618a SRPK1. Particulars: at 10 µM.

Serine/threonine-protein kinase WNK3 (Homo sapiens), sequence (Q9BYP7 whole entry): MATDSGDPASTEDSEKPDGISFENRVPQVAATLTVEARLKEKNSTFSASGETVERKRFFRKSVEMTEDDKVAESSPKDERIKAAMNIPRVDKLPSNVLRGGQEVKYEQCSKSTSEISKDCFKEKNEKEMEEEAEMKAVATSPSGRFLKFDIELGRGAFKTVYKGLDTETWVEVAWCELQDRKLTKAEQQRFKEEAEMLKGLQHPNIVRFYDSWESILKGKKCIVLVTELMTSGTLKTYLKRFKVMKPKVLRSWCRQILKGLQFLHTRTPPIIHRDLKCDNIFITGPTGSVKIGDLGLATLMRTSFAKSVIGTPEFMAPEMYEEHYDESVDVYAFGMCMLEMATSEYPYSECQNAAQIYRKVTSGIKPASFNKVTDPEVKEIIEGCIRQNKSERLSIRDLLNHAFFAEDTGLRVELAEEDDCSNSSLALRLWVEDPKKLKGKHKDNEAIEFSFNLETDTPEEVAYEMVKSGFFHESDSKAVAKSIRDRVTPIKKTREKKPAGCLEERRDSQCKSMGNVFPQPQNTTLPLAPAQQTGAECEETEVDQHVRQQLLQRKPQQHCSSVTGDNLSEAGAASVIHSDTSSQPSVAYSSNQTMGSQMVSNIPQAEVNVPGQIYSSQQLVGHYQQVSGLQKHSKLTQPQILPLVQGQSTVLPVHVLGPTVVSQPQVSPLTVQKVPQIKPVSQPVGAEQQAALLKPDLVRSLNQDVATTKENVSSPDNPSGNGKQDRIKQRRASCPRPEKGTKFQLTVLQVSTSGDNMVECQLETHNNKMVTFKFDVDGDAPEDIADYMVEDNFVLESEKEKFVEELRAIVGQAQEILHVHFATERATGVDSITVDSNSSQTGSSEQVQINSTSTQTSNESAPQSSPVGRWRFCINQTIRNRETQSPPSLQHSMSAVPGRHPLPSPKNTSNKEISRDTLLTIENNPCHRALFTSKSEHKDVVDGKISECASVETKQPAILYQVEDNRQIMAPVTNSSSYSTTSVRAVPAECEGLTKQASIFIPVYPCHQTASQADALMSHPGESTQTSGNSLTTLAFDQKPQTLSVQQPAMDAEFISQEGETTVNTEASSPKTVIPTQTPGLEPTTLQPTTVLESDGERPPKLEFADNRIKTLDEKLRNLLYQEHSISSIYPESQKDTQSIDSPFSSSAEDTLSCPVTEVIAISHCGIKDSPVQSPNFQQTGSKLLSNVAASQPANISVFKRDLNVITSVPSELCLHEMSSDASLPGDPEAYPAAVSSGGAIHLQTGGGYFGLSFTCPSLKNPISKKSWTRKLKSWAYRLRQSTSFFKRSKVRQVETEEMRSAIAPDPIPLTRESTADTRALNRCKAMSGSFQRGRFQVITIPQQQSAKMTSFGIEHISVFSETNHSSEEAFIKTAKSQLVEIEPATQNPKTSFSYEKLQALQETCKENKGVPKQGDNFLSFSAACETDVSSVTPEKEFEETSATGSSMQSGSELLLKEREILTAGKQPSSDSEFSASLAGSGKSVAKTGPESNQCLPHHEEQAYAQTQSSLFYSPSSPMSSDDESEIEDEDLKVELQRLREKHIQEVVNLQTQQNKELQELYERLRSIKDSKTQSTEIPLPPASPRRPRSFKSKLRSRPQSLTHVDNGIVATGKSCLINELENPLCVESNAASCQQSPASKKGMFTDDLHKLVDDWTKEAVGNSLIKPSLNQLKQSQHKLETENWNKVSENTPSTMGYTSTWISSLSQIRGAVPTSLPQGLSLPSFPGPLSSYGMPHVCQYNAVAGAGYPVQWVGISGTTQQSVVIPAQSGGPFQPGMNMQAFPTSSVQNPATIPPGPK
SRSF protein kinase 1, sequence (Q96SB4 whole entry): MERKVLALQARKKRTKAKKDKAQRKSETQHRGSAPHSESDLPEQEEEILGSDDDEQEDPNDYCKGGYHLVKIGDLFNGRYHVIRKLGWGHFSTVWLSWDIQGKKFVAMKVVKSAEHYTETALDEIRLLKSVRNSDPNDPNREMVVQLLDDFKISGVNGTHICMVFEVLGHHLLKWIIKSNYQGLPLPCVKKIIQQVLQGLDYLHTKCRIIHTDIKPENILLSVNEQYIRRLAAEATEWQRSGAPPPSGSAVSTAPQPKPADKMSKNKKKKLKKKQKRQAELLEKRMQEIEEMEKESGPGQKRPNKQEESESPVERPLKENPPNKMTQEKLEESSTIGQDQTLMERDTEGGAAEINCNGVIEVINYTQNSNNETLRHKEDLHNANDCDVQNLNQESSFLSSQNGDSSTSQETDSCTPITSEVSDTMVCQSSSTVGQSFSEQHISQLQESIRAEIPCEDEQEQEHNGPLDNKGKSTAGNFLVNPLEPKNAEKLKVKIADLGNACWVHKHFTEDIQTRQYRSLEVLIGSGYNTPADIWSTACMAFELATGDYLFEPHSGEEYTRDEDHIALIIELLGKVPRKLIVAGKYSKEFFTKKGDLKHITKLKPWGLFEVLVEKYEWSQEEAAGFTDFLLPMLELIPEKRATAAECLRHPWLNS
Cyclin-dependent kinase 5, sequence (Q00535 whole entry, looked up): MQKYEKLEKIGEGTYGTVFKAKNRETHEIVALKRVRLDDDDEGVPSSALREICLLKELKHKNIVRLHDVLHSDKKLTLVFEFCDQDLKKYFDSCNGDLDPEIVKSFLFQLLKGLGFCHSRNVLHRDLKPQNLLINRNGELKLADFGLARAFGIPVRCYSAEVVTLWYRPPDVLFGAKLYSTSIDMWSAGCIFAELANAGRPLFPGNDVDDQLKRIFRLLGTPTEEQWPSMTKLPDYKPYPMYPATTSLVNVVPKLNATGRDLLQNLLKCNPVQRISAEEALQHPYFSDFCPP

Consider `C=CC(=O)Nc1cccc(C(=O)Nc2ccc(Nc3cc(-c4[nH]c(SC)nc4C)ccn3)cc2)c1`, for which the % of control in test [1] (at 1 µM) is 79%; in test [1] (at 5 µM) it was 67%. For the molecule `Cc1cc([C@@H](C)Nc2ccccc2C(=O)O)c2nc(N3CCOCC3)cc(=O)n2c1` [AZD-6482], the % of control in test [2] was found to be 100%.

`CN(C)C/C=C/C(=O)Nc1ccc(C(=O)N2CCCC(Nc3ncc(Cl)c(-c4c[nH]c5ccccc45)n3)C2)cc1` (stereo unspecified) gave a % of control in test [3] of 80%. Regarding `CCN(CC)CCCCNc1ncc2cc(-c3cc(OC)cc(OC)c3)c(NC(=O)NC(C)(C)C)nc2n1`, in [4], the % of control was found to be 100%. Consider `CC(=O)Nc1cccc(-n2c(=O)n(C3CC3)c(=O)c3c(Nc4ccc(I)cc4F)n(C)c(=O)c(C)c32)c1`, for which the % of control came out at 111% in [5] and 97% in test [6]. `COc1cc(Nc2nc(C)cc(-c3cnn4nc(OC)ccc34)n2)cc(C(F)(F)F)c1`: the % of control in test [7] worked out at 98%. In the case of `CN(C)CC#Cc1ccc2[nH]c3c(c2c1)-c1nc(N)ncc1CCC3`, in test [8], the % of control came to 0.1%. Regarding `Cc1cc(CN)cc(C)c1-c1ncn(C)c1-c1cncn1C`, in test [9], the dTM was -3.97 K. As to `CC[C@@H]1[C@H](F)C(=O)N[C@@H]1COc1nccc2cc(C(N)=O)c(OC)cc12` [ZIMLOVISERTIB], in test [10], the % of inhibition was 52.2%.

Molecule `COc1cc(N(C)c2ccnc3ccc(C(F)(F)F)cc23)cc(OC)c1OC` yielded a % binding in test [11] of 72%. Consider `N#Cc1cccc(-c2c[nH]c3ncnc(N4CCOCC4)c23)c1`, for which the % of control came to 100% in [12] and 82% in [13]. Consider `O[C@H]1CC[C@H](Nc2ncc3nc(Nc4c(F)cc(F)cc4F)n([C@H]4CCOC4)c3n2)CC1`, for which the % of control (in [14]; at SRSF protein kinase 1) was 100% in each case.
